Results taken from patent US10639371B2, “Thermoresponsive bioconjugates and their controlled delivery of cargo” (University of Delaware, priority 2015, dated 2020).
Where no end group is shown, it is not given here.

What was measured:
[1] = Circular dichroic spectroscopy (CD), thermal unfolding of CLP triple helix; assay type: physicochemical; settings: first derivative of CD melting curve
Description: (§1) The ability of the CLP domain to form stable triple helix at physiological temperature while conjugated to the ELP was probed via circular dichroic spectroscopy (CD). The CD spectra of ELP-CLP at temperatures ranging from 5° C. to 80° C. […] Presumably, the collapse of the ELP domain at the elevated temperatures anchors the CLP and stabilizes it against unfolding, similar to our previously reported results for a polymer-conjugated CLP. The refolding of the CLP triple helix (FIGS. 2c and 2d) is likewise accelerated by the ELP anchoring of the CLP, owing to the increase in the local concentration of the CLP strands.

[2] = CD refolding of CLP triple helix after quenching from 80° C. to 5° C.; assay type: physicochemical
Description: as §1

[3] = test system: TNF-α production from RAW264.7 macrophages; assay: TNF-α ELISA, RAW264.7 macrophages (inflammation response); assay type: cell-based
Description: Blank PBS was used as a negative control and lipopolysaccharide (LPS, 50 ng/mL) was used as a positive control; and (B) TNF-α production from RAW264.7 macrophages, treated with ELP-CLP nanoparticles at various concentrations. Blank PBS was used as a negative control and lipopolysaccharide (LPS, 50 ng/mL) was used as a positive control.
(B) Viability of NIH-3T3 fibroblasts (8,000 cells/cm^2 in DMEM/10% FBS); live/dead overlay shown. (C) TNF-α production from RAW264.7 murine macrophage-like cell culture (15,000 cells/cm^2 in DMEM/10% FBS) in the presence of various concentrations of CLP-ELP nanoparticles.
RAW264.7 murine macrophages were purchased from American Type Culture Collection (ATCC) and were cultured in DMEM (Sigma Aldrich) supplemented with 10% heat-inactivated fetal bovine serum (MediaTech), 10 mM HEPES (GIBCO), 55 μM β-mercaptoethanol (GIBCO), and 1% antibiotic/antimycotic (GIBCO) at 37° C. with 5% CO2. […] Cell metabolism post-treatment was assayed using PrestoBlue Viability Assay (Life Technologies), which provides a fluorescence measurement of the overall reductive capability of the cells, according to the manufacturer's instructions. […] After 2 h of incubation at 37° C., the medium was collected and analyzed using a PerkinElmer VICTOR3 1420 Multilabel Plate Reader (PerkinElmer, Waltham, Mass.) at excitation/emission wavelengths of 570 nm/615 nm. […]

[4] = Dynamic light scattering (DLS) of assemblies upon heating; assay type: physicochemical; settings: ELP alone, 1 mg/mL in water
Description: (A) ELP at 1 mg/mL in water; (B) ELP and CLP physical mixture at 0.5 mg/mL each in water.
The anticipated assembly of ELP-CLP nanostructures at physiologically relevant temperatures was confirmed via dynamic light scattering (DLS) (FIG. 3). In contrast to our expectations that nanoparticle formation would be triggered at near physiological temperature, however, the conjugates formed structures with hydrodynamic diameters (Dh) that ranged from approximately 50 to 200 nm at all temperatures between 4° C. and 65° C. (FIG. 3a), with a Dh of approximately 160 nm at 37° C. (FIG. 3b).
The anchoring of the ELP by the noncovalent formation of CLP triple helix, however, should offer unique and as yet unreported opportunities to reversibly modulate the transition temperatures of the ELP domain and to thus confer dual thermoresponsiveness to the conjugates. Indeed, after an initial increase in the Dh of the ELP-CLP nanoparticles with heating to 50° C. (FIG. 3), Dh begins to decrease once the sample is heated above this temperature, which is also approximately the melting temperature of the CLP (FIG. 2b). With additional heating to 80° C., the CLP unfolds completely (FIG. 2b), and the nanoparticles become fully solubilized as monomers with an average Dh of only 5.6 nm (FIG. 3b). […]

(GPO)4GFOGER(GPO)4GG [CLP]
Tm (unfolding of CLP triple helix) [1]: ca. 50 °C
rate constant of triple helix refolding reaction [2]: 1.14×10^7 M^−2·s^−1

lipopolysaccharide [LPS]
TNF-α expression ([3]; FIG. 18C, 15,000 cells/cm^2, various concentrations): elevated TNF-α expression
TNF-α expression ([3]; nanoparticles 50-1000 μg/mL, LPS 50 ng/mL, 8 h): high levels of TNF-α expression

(VPGFG)6 (VPGFGVPGFGVPGFGVPGFGVPGFGVPGFG; also: alkyne functionalization, site not given here) [ELP]
inverse transition / aggregation upon heating [4]: does not undergo a transition
